# Experimental data reported in patent US8541572B2.
# Tested on: TNF-α production in LPS-stimulated human whole blood
# Test: Inhibition of TNF-α production from human whole blood (hWBA)
# Assay type: cell-based
# Conditions: Homo sapiens, IC50 for inhibition of TNF-α production, LPS-stimulated human whole blood; read-out: hWBA
row,SMILES,IC50
1,COc1ccc2c(c1)C(=O)N(C[C@@]1(C#Cc3ccc(-c4cnccc4OC)nc3)NC(=O)NC1=O)C2 [Compound 1105],5380 nM
2,COc1ccc2c(c1)C(=O)N(C[C@@]1(C#Cc3ccc(-n4cnc(CCNC(C)=O)c4)nc3)NC(=O)NC1=O)C2 [Compound 1130],524 nM
3,COc1ccc2c(c1)C(=O)N(C[C@@]1(C#Cc3ccc(C4=NCCN4)c(C)c3)NC(=O)NC1=O)C2 [Compound 1140],504 nM
4,COc1ccc2c(c1)C(=O)N(C[C@@]1(C#Cc3ccc(-n4ccnc4)cc3)NC(=O)NC1=O)C2 [Compound 1160],786 nM
5,COc1ccc2c(c1)C(=O)N(C[C@@]1(C#Cc3ccc(-n4cncn4)cc3)NC(=O)NC1=O)C2 [Compound 1170],1140 nM
6,COc1ccc2c(c1)C(=O)N(C[C@@]1(C#Cc3ccc(-c4ccc(F)cc4O)nc3)NC(=O)NC1=O)C2 [Compound 1316],9460 nM
7,COc1ccc2c(c1)C(=O)N(CC1(C#Cc3cccc4c3CCC43NC(=O)NC3=O)NC(=O)NC1=O)C2 (stereo not drawn) [Compound 1318],> 1000 nM
8,COc1ccc2c(c1)C(=O)N(C[C@@]1(C#Cc3nc(-c4cccc(C#N)c4)ccc3OC)NC(=O)NC1=O)C2 [Compound 1501],1e+06 nM
9,COc1ccc(N2CCC2=O)nc1C#C[C@]1(CN2Cc3ccc(OC)c(F)c3C2=O)NC(=O)NC1=O [Compound 1508],1170 nM
10,COc1ccc2c(c1)C(=O)N(C[C@@]1(C#Cc3ccc(N4CCCCC4)nc3)NC(=O)NC1=O)C2 [Compound 1509],514 nM
11,COc1ccc2c(c1F)C(=O)N(C[C@@]1(C#Cc3ccc(C(CN)N4CCC(NC(=O)OC(C)(C)C)C4)cc3)NC(=O)NC1=O)C2 (stereo partly drawn) [Compound 1702],303 nM

# Second part, the compound after the results:
row,IC50,SMILES
1,78 nM,COc1ccc2c(c1)C(=O)N(C[C@@]1(C#Cc3ccc(NC(=O)C4CCN(C)CC4)cc3)NC(=O)NC1=O)C2 [Compound 1909]
2,538 nM,COc1ccc2c(c1)C(=O)N(C[C@@]1(C#Cc3ccc(-n4cn[nH]c4=O)cc3)NC(=O)NC1=O)C2 [Compound 1914]
3,258 nM,COc1ccc2c(c1)C(=O)N(C[C@@]1(C#Cc3ccc(-n4c(-c5cccnc5)n[nH]c4=O)cc3)NC(=O)NC1=O)C2 [Compound 1916]
4,936 nM,COc1ccc2c(c1)C(=O)N(C[C@@]1(C#Cc3ccccc3C=O)NC(=O)NC1=O)C2 [Compound 1918]
5,204 nM,CCN1CCN(C(=NO)c2cnc(C#C[C@]3(CN4Cc5ccc(OC)cc5C4=O)NC(=O)NC3=O)c(OC)c2)CC1 [Compound 1923]

# Same assay, conditions: Homo sapiens, read-out: hWBA (nM)
row,SMILES,IC50
1,COc1ccc2c(c1F)C(=O)N(C[C@@]1(C#Cc3ccc(C4(C#N)CCN(C)CC4)cc3)NC(=O)NC1=O)C2 [Compound 1313],669 nM

# Same assay, conditions: IC50 for inhibition of TNF-α production, LPS-stimulated human whole blood
row,SMILES,hWBA (nM)
1,COc1ccc2c(c1)C(=O)N(C[C@@]1(C#Cc3ccc(-c4cccc(Cl)c4O)nc3)NC(=O)NC1=O)C2 [Compound 1315],Inactive

# Same assay, conditions: IC50 for inhibition of TNF-α production, LPS-stimulated human whole blood; read-out: hWBA
row,SMILES,IC50
1,COc1ccc2c(c1F)C(=O)N(C[C@@]1(C#Cc3ccc(-c4nc(-c5cnn(C)c5)ccc4OC(=O)C(C)(C)C)c(F)c3)NC(=O)NC1=O)C2 [Compound 1006],68.5 nM
2,COc1ccc2c(c1)C(=O)N(C[C@@]1(C#Cc3ccc(-c4ncccc4OC(=O)C(C)(C)C)cc3)NC(=O)NC1=O)C2 [Compound 1008],342 nM
3,COc1ccc2c(c1F)C(=O)N(C[C@@]1(C#Cc3ccc(-c4ncccc4O)cc3)NC(=O)NC1=O)C2 [Compound 1010],96 nM
4,COc1ccc2c(c1)C(=O)N(C[C@@]1(C#Cc3ccc(-c4cnccc4C)nc3)NC(=O)NC1=O)C2 [Compound 1100],2390 nM
5,COc1ccc2c(c1)C(=O)N(C[C@@]1(C#Cc3ccc(C4(CNS(C)(=O)=O)NC(=O)NC4=O)cc3)NC(=O)NC1=O)C2 (stereo partly drawn) [Compound 1110],176 nM
6,COc1ccc2c(c1)C(=O)N(C[C@@]1(C#Cc3ccc(-n4cnc(CCNC(C)=O)c4)cc3)NC(=O)NC1=O)C2 [Compound 1120],453 nM
7,COc1ccc2c(c1)C(=O)N(C[C@@]1(C#Cc3ccc(N4CCNC4=O)cc3)NC(=O)NC1=O)C2 [Compound 1150],1620 nM
8,COc1ccc2c(c1)C(=O)N(C[C@@]1(C#Cc3ccc(-c4cccc(C)c4O)nc3)NC(=O)NC1=O)C2 [Compound 1300],3500 nM
9,COc1ccc2c(c1)C(=O)N(C[C@@]1(C#Cc3ccc(-c4ccc(C)nc4O)nc3)NC(=O)NC1=O)C2 [Compound 1301],766 nM
10,COc1ccc2c(c1)C(=O)N(C[C@@]1(C#Cc3ccc(-c4c(C)n[nH]c4N)cc3)NC(=O)NC1=O)C2 [Compound 1303],488 nM
11,COc1ccc2c(c1F)C(=O)N(C[C@@]1(C#Cc3ccc4c(c3)C3(CC4)NC(=O)NC3=O)NC(=O)NC1=O)C2 (stereo partly drawn) [Compound 1304],367 nM
12,COc1ccc2c(c1)C(=O)N(C[C@@]1(C#Cc3ccc(Nc4c(NCCN5CCOCC5)c(=O)c4=O)cc3)NC(=O)NC1=O)C2 [Compound 1306],169 nM
13,COc1ccc2c(c1)C(=O)N(C[C@@]1(C#Cc3ccc(Nc4c(NCCN(C)C)c(=O)c4=O)cc3)NC(=O)NC1=O)C2 [Compound 1307],161 nM
14,COc1ccc2c(c1)C(=O)N(C[C@@]1(C#Cc3ccc(Nc4c(N)c(=O)c4=O)cc3)NC(=O)NC1=O)C2 [Compound 1308],306 nM
15,COc1ccc2c(c1F)C(=O)N(C[C@@]1(C#Cc3ccc(/C(=N/O)N4CCNC[C@@H]4C)c(F)c3)NC(=O)NC1=O)C2 [Compound 1309],42 nM
16,CCN1CCN(/C(=N\O)c2ccc(C#C[C@]3(CN4Cc5ccc(OC)c(F)c5C4=O)NC(=O)NC3=O)cc2F)[C@@H](C)C1 [Compound 1311],69 nM
17,COc1ccc2c(c1F)C(=O)N(C[C@@]1(C#Cc3cc(F)cnc3Cl)NC(=O)NC1=O)C2 [Compound 1312],935 nM
18,COc1ccc2c(c1F)C(=O)N(C[C@@]1(C#Cc3ccc(N4C(=O)NC5(CC5)C4=O)c(F)c3)NC(=O)NC1=O)C2 [Compound 1317],148 nM
19,CCN1CCN(C(=O)C2CC(=O)N(c3ccc(C#C[C@]4(CN5Cc6ccc(OC)cc6C5=O)NC(=O)NC4=O)cc3)C2)CC1 (stereo partly drawn) [Compound 1319],940 nM
20,COc1ccc2c(c1)C(=O)N(C[C@@]1(C#Cc3nc(N4CC[C@H](O)C4=O)ccc3OC)NC(=O)NC1=O)C2 [Compound 1504],3590 nM
21,COc1ccc2c(c1)C(=O)N(C[C@@]1(C#Cc3nc(N4C(=O)CCC4C)ccc3OC)NC(=O)NC1=O)C2 (stereo partly drawn) [Compound 1506],9540 nM
22,COCCN1CCN(c2ccc(OC)c(C#C[C@]3(CN4Cc5ccc(OC)cc5C4=O)NC(=O)NC3=O)n2)CC1 [Compound 1507],5710 nM
23,COc1ccc2c(c1)C(=O)N(C[C@@]1(C#Cc3nc(-c4cnc(N(C)C)nc4)ccc3OC)NC(=O)NC1=O)C2 [Compound 1510],10000 nM
24,COc1ccc2c(c1)C(=O)N(C[C@@]1(C#Cc3nc(-c4ccc(N5CCNCC5)nc4)ccc3OC)NC(=O)NC1=O)C2 [Compound 1511],2050 nM
25,COc1ccc2c(c1)C(=O)N(C[C@@]1(C#Cc3nc(-c4ccc(S(=O)(=O)NC5CC5)cc4)ccc3OC)NC(=O)NC1=O)C2 [Compound 1512],7040 nM
26,COc1ccc2c(c1)C(=O)N(C[C@@]1(C#Cc3ccc(C(CN)N4CCC(NC(=O)OC(C)(C)C)C4)cc3)NC(=O)NC1=O)C2 (stereo partly drawn) [Compound 1703],316 nM
27,COc1ccc2c(c1F)C(=O)N(C[C@@]1(C#Cc3ccc(C(CN)N4CCC(N)C4)cc3)NC(=O)NC1=O)C2 (stereo partly drawn) [Compound 1704],109 nM
28,COc1ccc2c(c1)C(=O)N(C[C@@]1(C#Cc3ccc(C(CN)N4CCC(N)C4)cc3)NC(=O)NC1=O)C2 (stereo partly drawn) [Compound 1705],233 nM
29,COc1ccc2c(c1F)C(=O)N(C[C@@]1(C#Cc3ccc(N4CCNCC4)cc3)NC(=O)NC1=O)C2 [Compound 1706],118 nM

# The next lines start with the values.
row,IC50,SMILES
1,374 nM,COc1ccc2c(c1)C(=O)N(C[C@@]1(C#Cc3cncc(-c4ccc(O)c(-c5cn[nH]c5)n4)c3)NC(=O)NC1=O)C2 [Compound 1707]
2,2190 nM,COc1ccc2c(c1)C(=O)N(C[C@@]1(C#Cc3nc(-c4n[nH]c(=O)n4C4CCN(C)CC4)ccc3OC)NC(=O)NC1=O)C2 [Compound 1900]
3,113 nM,CCN1CCN(C(=O)C2CCC(=O)N2c2ccc(C#C[C@]3(CN4Cc5ccc(OC)cc5C4=O)NC(=O)NC3=O)cc2)CC1 (stereo partly drawn) [Compound 1901]
4,152 nM,CCN1CCN(C(=O)C2CCC(=O)N2c2ccc(C#C[C@]3(CN4Cc5ccc(OC)c(F)c5C4=O)NC(=O)NC3=O)cc2)CC1 (stereo partly drawn) [Compound 1903]
5,416 nM,COc1ccc2c(c1)C(=O)N(C[C@@]1(C#Cc3ccc(N4C(=O)CCC4C(=O)N4CCN(C)CC4)cc3)NC(=O)NC1=O)C2 (stereo partly drawn) [Compound 1905]
6,578 nM,COc1ccc2c(c1)C(=O)N(C[C@@]1(C#Cc3ccc(N4C(=O)CCC4(C(=O)O)C(C)(C)O)nc3)NC(=O)NC1=O)C2 (stereo partly drawn) [Compound 1906]
7,86 nM,COc1ccc2c(c1F)C(=O)N(C[C@@]1(C#Cc3cncc(NC(=O)C4CCN(C)CC4)c3)NC(=O)NC1=O)C2 [Compound 1907]
8,299 nM,COc1ccc2c(c1)C(=O)N(C[C@@]1(C#Cc3cncc(NC(=O)C4CCN(C)CC4)c3)NC(=O)NC1=O)C2 [Compound 1908]
9,243 nM,COc1ccc2c(c1)C(=O)N(C[C@@]1(C#Cc3ccc(-n4c(C)n[nH]c4=O)cc3)NC(=O)NC1=O)C2 [Compound 1915]
10,3360 nM,CCN1CCN(C(=O)C2CCC(=O)N2c2ccc(OC)c(C#C[C@]3(CN4Cc5ccc(OC)cc5C4=O)NC(=O)NC3=O)n2)CC1 (stereo partly drawn) [Compound 1917]
11,244 nM,COc1ccc2c(c1)C(=O)N(C[C@@]1(C#Cc3ccc(-c4nnc(N)o4)cc3)NC(=O)NC1=O)C2 [Compound 1919]
12,269 nM,CCNc1nnc(-c2ccc(C#C[C@]3(CN4Cc5ccc(OC)cc5C4=O)NC(=O)NC3=O)cc2)o1 [Compound 1920]
13,808 nM,COc1ccc2c(c1)C(=O)N(C[C@@]1(C#Cc3nc(N)ccc3O)NC(=O)NC1=O)C2 [Compound 1921]
14,9910 nM,COc1ccc2c(c1)C(=O)N(C[C@@]1(C#Cc3nc(-c4cccc(O)c4)ccc3OC)NC(=O)NC1=O)C2 [Compound 1922]
15,515 nM,COc1ccc2c(c1)C(=O)N(C[C@@]1(C#Cc3ncc(C(=NO)N4CCN(c5cnccn5)CC4)cc3OC)NC(=O)NC1=O)C2 [Compound 1924]
16,430 nM,COc1ccc2c(c1)C(=O)N(C[C@@]1(C#Cc3ccc(N(c4cccnc4)C4CCNCC4)nc3)NC(=O)NC1=O)C2 [Compound 2200]
